# Reference: patent US7741491B2, “Diphenylamine-substituted salicylthiazole derivatives and related compounds as phosphotyrosine phosphatase 1B (PTB1B) inhibitors for using as blood-sugar decreasing active ingredients for treating diabetes” (Sanofi-Aventis Deutschland GmbH, priority 2004, dated 2010)
# Target: T1, human PTP1B (Homo sapiens, UniProt P18031)
# T1 construct: but without the carboxy-terminal hydrophobic region (corresponding to 1-299 aa); made in house; host or cells: Sf9 insect cells (Spodoptera frugiperda), Bac-to-Bac baculovirus system
# T1 sequence (P18031 1-299): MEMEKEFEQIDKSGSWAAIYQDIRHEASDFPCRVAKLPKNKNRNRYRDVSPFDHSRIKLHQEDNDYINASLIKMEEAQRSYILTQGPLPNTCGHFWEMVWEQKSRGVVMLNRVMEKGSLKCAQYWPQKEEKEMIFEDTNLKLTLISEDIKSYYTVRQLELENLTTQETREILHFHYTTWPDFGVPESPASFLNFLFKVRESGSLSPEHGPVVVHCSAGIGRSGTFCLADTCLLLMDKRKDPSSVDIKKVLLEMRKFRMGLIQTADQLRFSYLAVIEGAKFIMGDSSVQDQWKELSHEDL
# Test: PTP Assay PTP1B DiFMUP (enzymatic test for inhibition of a phosphatase)
# Format: biochemical
# Conditions: recombinant hPTP1B (aa 1-299, expressed in Sf9 cells); substrate DiFMUP per table head; read-out: IC-50 (μM) PTP Assay PTP1B DiFMUP
structure (smiles),measurement,value
O=C(O)c1cc(-c2csc(Nc3ccc(-c4ccccc4)cc3)n2)ccc1O [Example 17],IC50,0.7 µM
